Experimental data: patent US20240400986A1, “MEMBRANE BOUND COMPOSITIONS AND METHODS RELATING TO SAME” (FLAGSHIP PIONEERING INNOVATIONS VII, LLC, priority 2021, published 2024)
Read-outs that look alike come from different tables or passages of the source.

Experiments:
[1] = tested on: neuronal cell line derived from human neuroblastoma; experiment: Small molecule compound screen of gigasome production in neuronal monocultures; settings: for Fold Change of Gigasomes Produced vs. DMSO / Number of Gigasomes Produced: neuronal cells, 24 hours; for fold induction at 0.01 µM / fold induction at 0.1 µM / fold induction at 1 µM / fold induction at 10 µM: Homo sapiens, 24 h, read-out: Fold Change of Gigasomes Produced vs. DMSO
[2] = tested on: neuronal cell line derived from human neuroblastoma
Experimental: For the screening, a total of 99 compounds (TargetMol) were divided in 5 groups. Each group included an untreated condition, a vehicular DMSO control, and a known high-gigasome producing condition to comparatively study gigasome production rates. As a cell death control group, 500 nM Staurosporine was added to induce apoptosis. Cultures were incubated for 24 hours under gigasome inducing conditions at concentrations ranging between 10 nM and 10,000 nM. Before the end of the treatment, live neuronal cultures were imaged. The Zeiss ZEN Blue software was used to distribute imaging fields of view (positions) to create an unbiased imaging sample of a well. 5 images were taken using a Zeiss LSM 900 confocal microscope. […] The BioApps ZEN software package was used to perform cell nucleus segmentation and counting. After 24 hours, gigasomes were harvested from the cell culture media by gently removing from the top of each 96-well ⅔ of the total volume without disturbing the cell layer (containing the settled gigasomes) and by adding to each well the same amount of PBS. […] Cells remaining in the 96-well plates were assessed for viability using CellTiter-Glo (Promega).

[3] = tested on: cardiomyocytic cell line derived from human ventricular heart tissue; experiment: Cell viability in cardiomyocyte compound screen (CellTiter-Glo); format: cell-based
[4] = tested on: cardiomyocytic cell line derived from human ventricular heart tissue; experiment: Small molecule compound screen of gigasome production in cardiomyocytic monocultures; settings: for Number of Gigasomes Produced: Table 22, 24 hours;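 on all read-outs here: gigasomes shed into the culture medium were imaged by confocal microscopy and counted as round particles lacking nuclear signal, extrapolated to the whole well, fold change is relative to DMSO vehicle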
Experimental: For the screening, a total of 100 randomly organized compounds (TargetMol) were divided in 5 groups. Each group included an untreated condition, a vehicular DMSO control, and a known high-gigasome producing condition to comparatively study gigasome production rates. As a cell death control group, 500 nM Staurosporine was added to induce apoptosis. Cultures were incubated for 24 hours under gigasome inducing conditions at concentrations ranging between 10 nM and 10,000 nM. […] The Zeiss ZEN Blue software was used to distribute imaging fields of view (positions) to create an unbiased imaging sample of a well. 5 images were taken using a Zeiss LSM 900 confocal microscope. […] The BioApps ZEN software package was used to perform cell nucleus segmentation and counting. After 24 hours, gigasomes were harvested from the cell culture media by gently removing from the top of each 96-well ⅔ of the total volume without disturbing the cell layer (containing the settled gigasomes) and by adding to each well the same amount of PBS containing 0.5 mM EDTA. The wells were washed twice gently, and the gigasome-containing media/0.5 mM EDTA PBS wash was transferred into the well of a 384-well glass bottom plate. Cells remaining in the 96-well plates were assessed for viability using CellTiter-Glo (Promega).
For gigasome analysis in 384-well plates, the Zeiss ZEN Blue software was used to distribute positions to create an unbiased imaging sample of a well. 6 images per well were taken using a Zeiss LSM 900 confocal microscope. […] A watershed binary segmentation step was performed to separate grouped objects. For each particle in the mask, characteristic parameters of the particle were calculated and saved. […] Particles of interest were identified by thresholding by area and circularity. […] Circularity, defined by the formula 4pi(area/perimeter^2, was set to be between 0.8, where a value of 1.0 is a perfect circle, and a value of 0 is a line. Gigasomes were identified from the particles of interest by thresholding by mean nuclear signal. The nuclear signal threshold was set using a value equal to one quarter of a threshold value calculated by the Li auto-threshold algorithm applied to the distribution of all particles of interest. Particles of interest with nuclear signal below this value were considered “negative” for nuclear material and were identified as gigasomes. A sampling factor was calculated to extrapolate the total quantity of a type of object (particles, particles of interest, gigasomes) in the well. The sampling factor was the percentage of the well's area that was imaged. […] In some experiments, the number of cells in the cell cultures were estimated with a cell counter. […] The normalized quantity or distribution of objects was described as a quantity or distribution of objects per 1000 cells.

[5] = neuronal cells, dose 10 nM, 24 hours
[6] = neuronal cells, dose 100 nM, 24 hours
[7] = neuronal cells, dose 1000 nM, 24 hours
[8] = neuronal cells, dose 10000 nM, 24 hours
[9] = Homo sapiens, Cardiomyocyte, 24 h, read-out: Fold Change of Gigasomes Produced vs. DMSO

Compound	Number of Gigasomes Produced ([1]; dose 10 nM)	Number of Gigasomes Produced ([1]; dose 100 nM)	Fold Change of Gigasomes Produced vs. DMSO ([1]; dose 1000 nM)	Number of Gigasomes Produced ([1]; dose 1000 nM)	Viability [2, 5] [%]	Viability [2, 6] [%]	Viability [2, 7]	Number of Gigasomes Produced ([1]; dose 10000 nM)	Viability [2, 8] [%]	fold induction at 0.01 µM [1]	fold induction at 0.1 µM [1]	fold induction at 1 µM [1]	fold induction at 10 µM [1]	also measured
O=C(Nc1ccc(O)c(C(=O)O)c1)c1cccc(NC(=O)c2ccco2)c1 [OSS128167]	>40	25-30	0.75-1.0	25-30	100	>75	100%	–	–	–	–	–	–	Fold Change of Gigasomes Produced vs. DMSO ([1]; dose 10 nM): 1.0-1.25; Fold Change of Gigasomes Produced vs. DMSO ([1]; dose 100 nM): 0.75-1.0
O=C(Nc1ccc(O)c(C(=O)O)c1)c1cccc(NC(=O)c2ccco2)c1 [OSS_128167]	–	–	–	–	–	–	–	20-25	100	–	–	–	–	Fold Change of Gigasomes Produced vs. DMSO ([1]; dose 10000 nM): 0.5-0.75
C/C=C1/[C@H](O[C@@H]2O[C@H](CO)[C@@H](O)[C@H](O)[C@H]2O)OC=C(C(=O)OC)[C@H]1CC(=O)OCCc1ccc(O)c(O)c1 [Oleuropein, reference compound]	>40	30-35	–	30-35	–	–	–	25-30	–	1 to 1.25	0.75 to 1	0.75 to 1	0.5 to 0.75	Viability ([2]; human, 24 h, 10 nM): 100%; Viability ([2]; human, 24 h, 100 nM): 100%; Viability ([2]; human, 24 h, 1000 nM): >75%; Viability ([2]; human, 24 h, 10000 nM): 100%
O=C(O)c1cccnc1C(=O)O [Quinolinic acid]	–	–	–	–	–	–	–	–	–	–	–	–	–	Viability ([3]; Table 22, dose 100 nM, cardiomyocytes, 24 hours): 100%; fold induction at 0.1 µM [4, 9]: 1 to 1.25; Number of Gigasomes Produced ([4]; dose 100 nM, cardiomyocytes): 150-175
COC(=O)c1ccc([C@@H]2c3[nH]c4ccccc4c3C[C@@H](C(=O)OC)N2C(=O)CCl)cc1 [RSL3, reference compound]	–	–	2.0-3.0	55-65	–	–	>75%	–	–	–	–	–	–	–
C[C@@H]1COCCN1c1cc(=O)n2c(n1)N(Cc1cncc(Cl)c1)[C@H](C(F)(F)F)CC2 [SAR405]	–	–	–	–	–	–	–	–	–	–	–	–	–	Viability ([3]; human, 24 h, 1000 nM): 100.0%; Viability ([3]; human, 24 h, 10000 nM): >75%; fold induction at 1 µM [4, 9]: 1 to 1.25; fold induction at 10 µM [4, 9]: 1 to 1.25; Number of Gigasomes Produced ([4]; dose 1000 nM, cardiomyocytes): 150-175; Number of Gigasomes Produced ([4]; dose 10000 nM, cardiomyocytes): 200-225
CC[C@H](CO)Nc1nc(NCc2ccccc2)c2ncn(C(C)C)c2n1 [Seliciclib]	25-30	25-30	–	25-30	100	100	100%	15-20	100	0.75 to 1	0.75 to 1	0.75 to 1	0.5 to 0.75	–
CC(C)[C@H](O)C(=O)N[C@@H](C)C(=O)N[C@@H]1C(=O)N(C)CCc2ccccc21 [Semagacestat]	>40	35-40	–	20-25	100	100	100%	20-25	100	0.75 to 1	0.75 to 1	0.5 to 0.75	0.5 to 0.75	–
CCN(CC)CCNC(=O)c1c(C)[nH]c(/C=C2\C(=O)Nc3ccc(F)cc32)c1C [Sunitinib]	–	–	–	–	–	–	–	–	–	–	–	–	–	Viability ([3]; human, 24 h, 10000 nM): 50-75%; fold induction at 10 µM [4, 9]: 1.5 to 1.75; Number of Gigasomes Produced ([4]; dose 10000 nM, cardiomyocytes): 200-225
CC(=O)Nc1cccc(-n2c(=O)n(C3CC3)c(=O)c3c(Nc4ccc(I)cc4F)n(C)c(=O)c(C)c32)c1 [Trametinib, reference compound]	35-45	35-45	–	65-75	–	–	–	–	–	1.25 to 1.5	1.25 to 1.5	2 to 3	–	Viability ([2]; human, 24 h, 10 nM): >75%; Viability ([2]; human, 24 h, 100 nM): >75%; Viability ([2]; human, 24 h, 1000 nM): >75%
CC(/C=C/C(=O)NO)=C\[C@@H](C)C(=O)c1ccc(N(C)C)cc1 [Trichostatin A]	–	–	1.75-2.0	55-65	–	–	50-75%	–	–	–	–	–	–	–
N#C/C(=C\c1cn(-c2ccccc2)c2ccccc12)C(=O)O [UK-5099, reference compound]	20-25	15-20	0.5-0.75	15-20	100	100	100%	10-15	100	–	–	–	–	Fold Change of Gigasomes Produced vs. DMSO ([1]; dose 10 nM): 0.5-0.75; Fold Change of Gigasomes Produced vs. DMSO ([1]; dose 100 nM): 0.5-0.75; Fold Change of Gigasomes Produced vs. DMSO ([1]; dose 10000 nM): 0.25-0.5; downregulation of gigasome production ([4]; cardiomyocytes, doses 10-10,000 nM, 24 h): dose-dependent downregulation
CN1C(=N)N[C@](C)(c2cc(NC(=O)c3ccc(F)cn3)ccc2F)CS1(=O)=O [Verubecestat]	35-40	25-30	–	20-25	100	100	100%	20-25	100	0.75 to 1	0.5 to 0.75	0.5 to 0.75	0.5 to 0.75	–
